Results: the supplement of paper PMC13380429

Tests used:
[1] = test system: A549-ACE2; assay: phospholipidosis EC50; higher = less potent phospholipidosis inducer
[2] = test system: A549-ACE2 infected with SARS-CoV-2; assay: morphology score (similarity to uninfected cells); higher = more like uninfected cells; details: 24 h
[3] = test system: Calu-3; assay: drug sensitivity score (DSS) for viability; higher = more toxic; extreme values may be limits of the assay; details: 72 h
[4] = test system: HepG2; assay: as above; details: 72 h
[5] = test system: U2OS; assay: as above; details: 72 h
[6] = test system: Vero E6; assay: as above; details: 72 h
[7] = test system: A549-ACE2 infected with SARS-CoV-2; assay: cell count relative to DMSO; higher = less toxic; details: 24 h
[8] = test system: Caco-2; assay: cell viability relative to DMSO; higher = less toxic; details: 72 h
[9] = test system: Calu-3; assay: as above; details: 72 h
[10] = test system: HepG2; assay: as above; details: 72 h
[11] = test system: U2OS; assay: as above; details: 72 h
[12] = test system: Vero E6; assay: as above; details: 72 h
[13] = test system: A549-ACE2 infected with SARS-CoV-2; assay: SARS-CoV-2 infection rate relative to DMSO; higher = more infection; details: 24 h
[14] = test system: A549-ACE2; assay: drug-induced phospholipidosis relative to tamoxifen; higher = more phospholipidosis
[15] = test system: Caco-2; assay: relative viability EC50 (midpoint between 100% and the lowest measured viability); higher = less toxic; details: 72 h
[16] = test system: Calu-3; assay: as above; details: 72 h
[17] = test system: HepG2; assay: as above; details: 72 h
[18] = test system: U2OS; assay: as above; details: 72 h
[19] = test system: Vero E6; assay: as above; details: 72 h
[20] = test system: Caco-2; assay: drug sensitivity score (DSS) for viability; higher = more toxic; extreme values may be limits of the assay; details: 72 h

CCN(CC)CCCC(C)Nc1c2ccc(Cl)cc2nc2ccc(OC)cc12 (stereo not drawn) [mepacrine]
Details | morphology score, 0.1 µM | morphology score, 0.3 µM | morphology score, 1 µM | morphology score, 3 µM | phospholipidosis EC50, 24 h [µM] | phospholipidosis EC50, 48 h [µM] | phospholipidosis EC50, 72 h [µM]
[1] | – | – | – | – | 15.8 | 5.62 | 3
[2] | 0.52 | 0.52 | 0.63 | 0.79 | – | – | –

Details | drug sensitivity score
[3] | 5.7
[4] | 8.9
[5] | 4
[6] | 7.2

OC(CCN1CCCCC1)(c1ccccc1)C1CC2C=CC1C2 (stereo not drawn) [biperiden]
Details | SARS-CoV-2 infection rate, [13] [%] | cell count, [7] [%] | cell viability, [8] [%] | cell viability, [9] [%] | cell viability, [10] [%] | cell viability, [11] [%] | cell viability, [12] [%] | morphology score, [2]
1 nM | – | – | 93.2 | 103 | 93.3 | 99.4 | 92.7 | –
10 nM | – | – | 96 | 108 | 108 | 101 | 95.8 | –
100 nM | – | – | 99 | 108 | 99.5 | 102 | 95.2 | –
0.3 µM | 106 | 100 | – | – | – | – | – | -0.01
1000 nM | – | – | 97.9 | 101 | 110 | 97 | 96.2 | –
3 µM | 76 | 107 | – | – | – | – | – | 0.49
10 µM | 55 | 112 | – | – | – | – | – | 0.74
10000 nM | – | – | 104 | 95.4 | 97.2 | 95.3 | 101 | –
30 µM | 44 | 113 | – | – | – | – | – | 0.76

drug-induced phospholipidosis [%], [14]
Details | 0.3 µM | 0.833333 µM | 3.33333 µM | 6.66667 µM | 10 µM | 30 µM
24 h | 6.44 | 3.39 | 3.47 | 5.73 | 10.9 | 32.9
48 h | 5.46 | -0.33 | 0.38 | 9.63 | 13.4 | 30.6
72 h | 8.44 | 0.683 | 2.98 | 6.62 | 5.63 | 27.3

Details | drug sensitivity score | relative viability EC50 [µM]
[3] | 0 | –
[4] | 0 | –
[5] | 0 | –
[6] | 0 | –
[15] | – | > 10
[16] | – | > 10
[17] | – | > 10
[18] | – | > 10
[19] | – | > 10
[20] | 0 | –

O=S(=O)(NCC1CC1)c1ccc(Nc2nccc(N3CCCc4cc(O)ccc43)n2)cc1 [pyrintegrin]
Details | SARS-CoV-2 infection rate [%] | cell count [%] | cell viability [%] | morphology score | phospholipidosis EC50 [µM]
[1], 24 h | – | – | – | – | 1.91
[2], 0.1 µM | – | – | – | 0.18 | –
[2], 0.3 µM | – | – | – | 0.28 | –
[2], 1 µM | – | – | – | 0.52 | –
[2], 3 µM | – | – | – | 0.4 | –
[7], 0.1 µM | – | 104 | – | – | –
[7], 0.3 µM | – | 106 | – | – | –
[7], 1 µM | – | 107 | – | – | –
[7], 3 µM | – | 86 | – | – | –
[8], 1 nM | – | – | 98.1 | – | –
[8], 10 nM | – | – | 102 | – | –
[8], 100 nM | – | – | 100 | – | –
[8], 1000 nM | – | – | 110 | – | –
[8], 10000 nM | – | – | 86.2 | – | –
[9], 1 nM | – | – | 95.5 | – | –
[9], 10 nM | – | – | 89.7 | – | –
[9], 100 nM | – | – | 92.8 | – | –
[9], 1000 nM | – | – | 102 | – | –
[9], 10000 nM | – | – | 85 | – | –
[10], 1 nM | – | – | 102 | – | –
[10], 10 nM | – | – | 103 | – | –
[10], 100 nM | – | – | 107 | – | –
[10], 1000 nM | – | – | 66.6 | – | –
[10], 10000 nM | – | – | 15.5 | – | –
[11], 1 nM | – | – | 99 | – | –
[11], 10 nM | – | – | 97 | – | –
[11], 100 nM | – | – | 97.8 | – | –
[11], 1000 nM | – | – | 96 | – | –
[11], 10000 nM | – | – | 62.4 | – | –
[12], 1 nM | – | – | 90.5 | – | –
[12], 10 nM | – | – | 93.9 | – | –
[12], 100 nM | – | – | 98.9 | – | –
[12], 1000 nM | – | – | 98.3 | – | –
[12], 10000 nM | – | – | 75.3 | – | –
[13], 0.1 µM | 104 | – | – | – | –
[13], 0.3 µM | 103 | – | – | – | –
[13], 1 µM | 81 | – | – | – | –
[13], 3 µM | 60 | – | – | – | –

drug-induced phospholipidosis [%], [14]
Details | 0.3 µM | 0.833333 µM | 3.33333 µM | 6.66667 µM | 10 µM
24 h | 5.15 | 22.5 | 132 | 178 | 150
48 h | 3.16 | 12.3 | 135 | – | –
72 h | 2.43 | 7.41 | – | – | –

Details | drug sensitivity score | relative viability EC50 [µM]
[3] | 0.1 | –
[4] | 9.2 | –
[5] | 2.5 | –
[6] | 1.2 | –
[15] | – | > 10
[16] | – | > 10
[17] | – | 1.19
[19] | – | > 10
[20] | 0 | –
